tested on: Globodera pallida eggs; assay: Hatching accelerating effect evaluation test for Globodera pallida (liquid immersion test); assay type: in vivo; details: 1 mL of 2 ppm test reagent solution added to 1 mL egg suspension; 16° C.; about 2 weeks; two replicates
Protocol: A predetermined amount of compound (I) was dissolved in an aqueous solution containing 0.05% (v/v) of polyoxyethylene sorbitan monolaurate (Tween20) to prepare a 100 ppm solution of compound (I).
The 100 ppm solution of compound (I) was further diluted with a 0.05% (v/v) Tween20 aqueous solution to prepare a test reagent solution with a concentration of compound (I) of 2 ppm.
The cysts of Globodera pallida increased in a greenhouse before the previous year were isolated from the soil, immersed in distilled water and kept at 16° C. for about 2 weeks were crushed with a scalpel and the eggs were taken out to obtain an egg suspension. After preparing a density of approximately 600 eggs per mL, Tween 20 was added to a concentration of 0.05% (v/v). 1 mL of this egg suspension was put into a 13.5 mL screw cap glass vial (inner diameter: 2.1 cm, height: 4.8 cm), and 1 mL each of a test reagent solution with a concentration of compound (I) of 2 ppm was added. It was covered and kept at 16° C.
About 2 weeks later, 1 mL was taken out, and the number of hatching larvae and the number of eggs were counted under a stereomicroscope. Two replicates were installed for each compound, and the average hatching rate was calculated.

Row | Compound | Average hatching rate (%)
1 | CC1(C)SC(=O)CCC1c1ccccc1 (stereo not drawn) [Compound A-5] | 92.6
2 | CC1(C)SC(=O)CCC1c1ccc(Cl)cc1 (stereo not drawn) [Compound A-6, 5-(4-chlorophenyl)-6,6-dimethyl tetrahydro-2H-thiopyran-2-one] | 93.6
3 | Cc1cccc(C2=CC(=O)OC2(C)C)c1C [Compound D-14] | 63.7
4 | COC(=O)c1ccc(C2CCC(=O)NC2(C)C)cc1 (stereo not drawn) [Compound A-4] | 68.8
5 | CC1(C)NC(=O)CC1c1ccc(C(F)(F)F)cc1 (stereo not drawn) [Compound 7, 5,5-dimethyl-4-(4-trifluoromethylphenyl)-2-pyrrolidinone] | 86.6
6 | Cc1ccc(C)c(C2CC(=S)OC2(C)C)c1 (stereo not drawn) [Compound B-3] | 21.2
7 | CC1(C)SC(=O)CC1c1ccc(Br)cc1 (stereo not drawn) [Compound B-5] | 96.9
8 | CC1(C)NC(=O)[C@H]2C[C@]21c1ccccc1 (stereo in doubt) [Compound C-1, 4,4-dimethyl-5-phenyl-3-azabicyclo[3.1.0]hexan-2-one] | 94.0
9 | Cc1ccccc1C1=CC(=O)NC1(C)C [Compound D-18] | 58.8
10 | Cc1cc(C)cc(C2CC(=O)OC2(C)C)c1 [Compound D-4] | 40.1
11 | CC1(C)SC(=O)CC1c1ccc(Cl)cc1 (stereo not drawn) [Compound B-7] | 96.6
12 | CC1(C)NC(=O)CCC1c1ccccc1 (stereo not drawn) [Compound A-1] | 77.4
13 | Cc1ccc(C)c(C2CC(=O)NC2(C)C)c1 (stereo not drawn) [Compound 11, 5,5-dimethyl-4-(2,5-dimethyl-phenyl)-2-pyrrolidinone] | 72.9
14 | CC1(C)OC(=O)C=C1c1ccc2ccccc2c1 [Compound D-11] | 59.0
15 | Cc1ccc(C2CC(=O)SC2(C)C)cc1 (stereo not drawn) [Compound B-6, 5,5-dimethyl-4-(p-tolyl)dihydrothiophene-2 (3H)-one] | 97.1
16 | CC1(C)NS(=O)(=O)CC1c1ccc(Cl)cc1 (stereo not drawn) [Compound B-12, 4-(4-chlorophenyl)-3,3-dimethylisothiazolidine-1,1-dioxide] | 93.0
17 | Cc1ccccc1C1CC(=O)NC1(C)C (stereo not drawn) [Compound 10, 5,5-dimethyl-4-(2-methylphenyl)-2-pyrrolidinone] | 69.2
18 | Cc1ccc(C2CC(=S)OC2(C)C)cc1 (stereo not drawn) [Compound B-2, 5,5-dimethyl-4-(p-tolyl)dihydrofuran-2 (3H)-thione] | 86.6
19 | COc1ccc(C2CC(=O)NC2(C)C)cc1 (stereo not drawn) [Compound 6, 5,5-dimethyl-4-(4-methoxyphenyl)-2-pyrrolidinone] | 38.0
20 | CC1(C)NC(=O)CC1c1cc(F)c(F)c(F)c1 (stereo not drawn) [Compound 13, 5,5-dimethyl-4-(3,4,5-trifluoro-phenyl)-2-pyrrolidinone] | 62.6
21 | CC1(C)OC(=O)C=C1c1ccc(-c2ccc(Cl)cc2)cc1 [Compound D-12] | 52.0
22 | CC1(C)NS(=O)(=O)CC1c1ccccc1 (stereo not drawn) [Compound B-9] | 69.5
23 | CC1(C)NC(=O)CC1c1ccc(Cl)c(Cl)c1 [Compound D-7] | 95.2
24 | CCc1ccc(C2CC(=O)OC2(C)C)cc1 [Compound D-5] | 56.6
25 | CC1(C)NC(=O)CCC1c1ccc(Br)cc1 (stereo not drawn) [Compound A-2] | 97.4
26 | Cc1cccc(C2CC(=O)NC2(C)C)c1 (stereo not drawn) [Compound 9, 5,5-dimethyl-4-(3-methylphenyl)-2-pyrrolidinone] | 72.3

Row | Compound | Average hatching rate (%)
27 | Cc1ccc(C2CC(=S)NC2(C)C)cc1 [Compound D-8] | 91.8
28 | CC1(C)NS(=O)(=O)CC1c1ccc(Br)cc1 (stereo not drawn) [Compound B-10] | 82.7
29 | CC(C)(C)c1ccc(C2CC(=O)OC2(C)C)cc1 [Compound D-6] | 67.5
30 | Cc1ccc(C2CS(=O)(=O)NC2(C)C)cc1 (stereo not drawn) [Compound B-11] | 80.2
31 | Cc1ccc(C2=CC(=O)NC2(C)C)c(C)c1 [Compound D-19] | 95.7
32 | Cc1ccccc1C1=CC(=O)OC1(C)C [Compound D-13] | 60.1
33 | CC1(C)CC(=O)CC1c1ccccc1 (stereo not drawn) [Compound 21, 3,3-dimethyl-4-phenyl-cyclopentanone] | 76.6
34 | Cc1ccc(C)c(C2CC(=O)SC2(C)C)c1 (stereo not drawn) [Compound B-8] | 51.2
35 | CC1(C)OC(=O)CC1c1ccccc1 (stereo not drawn) [Compound 17, 5,5-dimethyl-4-phenyldihydrofuran-2(3H)-one] | 58.6
36 | Cc1ccccc1C1CC(=O)OC1(C)C (stereo not drawn) [Compound 20, 5,5-dimethyl-4-(o-tolyl)dihydrofuran-2(3H)-one] | 63.1
37 | Cc1ccc(C2CC(=O)OC2(C)C)c(C)c1 [Compound D-2] | 94.7
38 | CC1(C)NC(=O)CC1c1ccc(F)cc1 (stereo not drawn) [Compound 8, 5,5-dimethyl-4-(4-fluorophenyl)-2-pyrrolidinone] | 94.1
39 | CC1(C)OC(=O)C=C1c1ccc(Cl)cc1 [Compound D-9] | 50.1
40 | Cc1cc(C)cc(C2=CC(=O)OC2(C)C)c1 [Compound D-17] | 55.4
41 | CC1(C)OC(=O)C=C1c1cccc2ccccc12 [Compound D-10] | 36.4
42 | Cc1cccc(C2CC(=O)OC2(C)C)c1C [Compound D-1] | 65.6
43 | CC1(C)SC(=O)CC1c1ccccc1 (stereo not drawn) [Compound B-4] | 96.3
44 | Cc1ccc(C2CC(=O)OC2(C)C)cc1C [Compound D-3] | 58.8
45 | CC1(C)OC(=S)CC1c1ccccc1 (stereo not drawn) [Compound B-1] | 70.4
46 | CC1C(=O)NC(C)(C)C1c1ccccc1 (stereo not drawn) [Compound 15, 3,5,5-trimethyl-4-phenyl-2-pyrrolidinone] | 77.3
47 | CC1(C)OC(=O)CC1c1ccc(F)cc1 (stereo not drawn) [Compound 19, 4-(4-fluorophenyl)-5,5-dimethyldihydrofuran-2(3H)-one] | 84.6
48 | CC1(C)NC(=O)CC1c1ccccc1 (stereo not drawn) [Compound 1, 5,5-dimethyl-4-phenyl-2-pyrrolidinone] | 83.0
49 | Cc1ccc(C)c(C2=CC(=O)OC2(C)C)c1 [Compound D-16] | 66.5
50 | Cc1ccc(C2CC(=O)NC2(C)C)c(C)c1 (stereo not drawn) [Compound 14, 5,5-dimethyl-4-(2,4-dimethyl-phenyl)-2-pyrrolidinone] | 37.6
51 | CC1(C)NC(=S)CC1c1ccccc1 (stereo not drawn) [Compound 16, 5,5-dimethyl-4-phenyl pyrrolidine-2-thione] | 69.2
52 | Cc1ccc(C2CCC(=O)SC2(C)C)cc1 (stereo not drawn) [Compound A-7] | 93.9

same assay, conditions: 1 ppm; optically active compounds

Row | Compound | Average hatching rate at 1 ppm (%)
53 | CC1(C)NC(=O)CC1c1ccccc1 (single isomer, unassigned; (+)) [1 (+), (+)-5,5-dimethyl-4-phenyl-2-pyrrolidinone] | 37.8
54 | CC1(C)NS(=O)(=O)CC1c1ccc(Cl)cc1 (single isomer, unassigned; (+)) [B-12 (+), (+)-4-(4-chlorophenyl)-3,3-dimethylisothiazolidine-1,1-dioxide] | 95.2
55 | Cc1ccc(C2CC(=O)NC2(C)C)cc1 (single isomer, unassigned; (-)) [Compound 2 (−), (−)-5,5-dimethyl-4-(4-methylphenyl)-2-pyrrolidinone] | 91.8
56 | CC1(C)NC(=O)CC1c1ccccc1 (single isomer, unassigned) [1 (−), 5,5-dimethyl-4-phenyl-2-pyrrolidinone] | 87.7
57 | Cc1ccc(C2CC(=O)NC2(C)C)cc1 (single isomer, unassigned; (+)) [2 (+), (+)-5,5-dimethyl-4-(4-methylphenyl)-2-pyrrolidinone] | 63.6
58 | CC1(C)NC(=O)CC1c1ccc(Cl)cc1 (single isomer, unassigned; (+)) [3 (+), (+)-5,5-dimethyl-4-(4-chlorophenyl)-2-pyrrolidinone] | 93.2
59 | CC1(C)NC(=O)CC1c1ccc(Cl)cc1 (single isomer, unassigned) [3 (−), 5,5-dimethyl-4-(4-chlorophenyl)-2-pyrrolidinone] | 92.0
60 | CC1(C)NS(=O)(=O)CC1c1ccc(Cl)cc1 (single isomer, unassigned) [B-12 (−), 4-(4-chlorophenyl)-3,3-dimethylisothiazolidine-1,1-dioxide] | 94.6
